Results published in patent publication US11173162B2, “Bicyclic heterocycles as FGFR4 inhibitors” (Incyte Corporation, priority 2015, dated 2021).

Tests used:
FGFR4 = FGFR4 (Homo sapiens (Human), UniProt P22455); test: FGFR Enzymatic Assay (FRET peptide phosphorylation), FGFR4; format: biochemical
Method: (§1) The inhibitor potency of the exemplified compounds was measured in an enzyme assay that measures peptide phosphorylation using FRET measurements to detect product formation. Inhibitors were serially diluted in DMSO and a volume of 0.5 μL was transferred to the wells of a 384-well plate.
The enzymes were purchased from Millipore or Invitrogen.
(§2) GraphPad prism3 was used to analyze the data.

FGFR3 enzyme = test: FGFR Enzymatic Assay (FRET peptide phosphorylation), FGFR3; format: biochemical; details: IC50 ratio showing FGFR3 selectivity; Table 2A, pre-incubated for 4 hours
Method: as §1, §2

[1] = IC50 ratio showing FGFR4 selectivity, Table 2, pre-incubated for 4 hours
[2] = ratio of IC50 data showing FGFR4 selectivity, Table 4, pre-incubated for 5 to 10 minutes

Sequence of FGFR4 (P22455 22-802): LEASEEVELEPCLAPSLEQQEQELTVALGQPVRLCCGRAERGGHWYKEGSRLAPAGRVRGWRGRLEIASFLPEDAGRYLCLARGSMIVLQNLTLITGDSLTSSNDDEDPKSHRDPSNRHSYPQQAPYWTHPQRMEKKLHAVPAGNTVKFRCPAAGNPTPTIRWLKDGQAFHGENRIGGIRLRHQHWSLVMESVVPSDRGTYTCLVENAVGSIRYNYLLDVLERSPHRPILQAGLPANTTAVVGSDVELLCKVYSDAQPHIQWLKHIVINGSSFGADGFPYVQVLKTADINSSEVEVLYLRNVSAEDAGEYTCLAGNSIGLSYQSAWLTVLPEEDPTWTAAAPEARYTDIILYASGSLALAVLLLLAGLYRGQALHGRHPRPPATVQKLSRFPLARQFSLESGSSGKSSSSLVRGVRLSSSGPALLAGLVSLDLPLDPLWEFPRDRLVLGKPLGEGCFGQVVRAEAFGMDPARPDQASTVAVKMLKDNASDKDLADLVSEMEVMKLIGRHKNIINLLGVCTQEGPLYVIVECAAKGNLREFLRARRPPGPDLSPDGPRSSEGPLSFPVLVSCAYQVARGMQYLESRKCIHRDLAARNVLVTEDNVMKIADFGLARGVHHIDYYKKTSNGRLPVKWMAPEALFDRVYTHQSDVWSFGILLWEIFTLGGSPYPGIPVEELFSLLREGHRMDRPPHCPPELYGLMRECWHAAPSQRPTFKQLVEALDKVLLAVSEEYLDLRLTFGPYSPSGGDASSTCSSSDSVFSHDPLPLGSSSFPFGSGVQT

Structure (SMILES)	FGFR1/FGFR4 (FGFR4; [1])	FGFR2/FGFR4 (FGFR4; [1])	FGFR3/FGFR4 (FGFR4; [1])	FGFR1/FGFR4 (FGFR4; [2])	FGFR2/FGFR4 (FGFR4; [2])	FGFR3/FGFR4 (FGFR4; [2])	FGFR1/FGFR3 (FGFR3 enzyme)
COc1cc(OC)c(F)c(N2Cc3cnc(-c4cncc(NS(C)(=O)=O)c4)cc3C3(CC3)C2=O)c1F [Example 15, N-(5-(2′-(2,6-difluoro-3,5-dimethoxyphenyl)-3′-oxo-2′,3′-dihydro-1′H-spiro[cyclopropane-1,4′-[2,7]naphthyridine]-6′-yl)pyridin-3-yl)methanesulfonamide]	>50	>25	>10	>50	>25	>10	>3
COc1cc(OC)c(F)c(N2Cc3cnc(-c4cncc(CN5CCOCC5)c4)cc3C3(CC3)C2=O)c1F [Example 16, 2′-(2,6-difluoro-3,5-dimethoxyphenyl)-6′-(5-(morpholinomethyl)pyridin-3-yl)-1′H-spiro[cyclopropane-1,4′-[2,7]naphthyridin]-3′(2′H)-one]	>50	>25	>10	>25	>10	>10	>1
